For data set [1], the system named is premature ejaculation (PE). The data set is described as follows: Case reports: intravaginal ejaculation latency time (IELT) in PE patients. The format is in vivo, human.
Data set [2] is described as follows: Case reports: tolerability and side effects in PE patients. It is filed as in vivo, human.
The test system of the next data set is erectile dysfunction. The data set is described as follows: Case reports: erection / ability to achieve intercourse. The following applies: Case Report 6; 12 mg yohimbine daily alone, in two doses. The format is in vivo, human. From the text: A patient complained about erectile dysfunction and PE.
A patient complained about primary PE and about psychogenic erectile dysfunction.

The conditions of data set [3]: cited from earlier work.
In another data set the test system is male rats. Particulars: male rats (Shekar et al. 2017); cited from earlier work.
A further data set concerns aged male rats. Particulars: cited from earlier work.
Another data set concerns seminal vesicle. The following applies: electrical nerve stimulation (Hsieh et al. 1999); cited from earlier work.
The conditions of data set [4]: cited from earlier work; for peak plasma concentration: healthy volunteers.
The test system of data set [5] is premature ejaculation (PE). Particulars: cited from earlier work.
The mark [6] stands for this setting: metabolite after oral clomipramine.

Like-named read-outs stand apart in the source and are kept apart here. Where only a bound is given, the exact number is not on record here.

With `COC(=O)[C@@H]1[C@H]2C[C@H]3c4[nH]c5ccccc5c4CCN3C[C@@H]2CC[C@@H]1O` [yohimbine, 17α-hydroxy-yohimban-16α-carboxylic acid methyl ester], the time of intercourse entry in data set [1] (Case Report 6, 12 mg yohimbine daily alone) is recorded as “no amelioration”. Further, the side effects reported entry in data set [2] (Case Report 6, 12 mg yohimbine daily alone, from the second day of treatment) is “diarrhoea”. In addition, the erections result with erectile dysfunction was “improved erections”. The elimination half-life in data set [3] (single-dose studies, oral or intravenous) is recorded as under 1 h. In the data set on male rats, the “antagonism of clomipramine-induced sexual dysfunction” value was “failed to antagonize”. In addition, in the data set with aged male rats, the “effect on erectile dysfunction” value is on record as “improves erectile dysfunction”. For the same molecule, in the data set on seminal vesicle, the “effect on seminal vesicle contractile response” value is “can suppress”.
With `Fc1ccc([C@@H]2CCNC[C@H]2COc2ccc3c(c2)OCO3)cc1` [paroxetine], in data set [1] (Case Report 1, 20 to 40 mg daily for 6 months), the “outcome of earlier PE treatment” value is “unsuccessfully”.
For `CNCCCN1c2ccccc2CCc2ccc(Cl)cc21` [desmethylclomipramine], the “peak plasma concentration of metabolite” value in [4] (after single oral dose of 50 mg clomipramine) was 5.0 ± 1.4 ng/mL. Also, in data set [4] (setting [6]), the half-life (commonly the time needed for the level to fall by half in the phase considered) is 36 h and the “half-life, upper limit in brackets” value is “up to 9 hours”.
In the case of `CN(C)CCCN1c2ccccc2CCc2ccc(Cl)cc21` [clomipramine, 3-(3-chloro-10,11-dihydro-5H-dibenzo[b,f]azepin-5-yl)-N,N-dimethylpropan-1-amine], in data set [1] (Case Report 5, 30 mg clomipramine alone 6 hours before sexual intercourse, before: 1 minute), the IELT after treatment is 6 min. The side effects reported result in data set [2] (Case Report 5, 30 mg clomipramine alone 6 hours before sexual intercourse) is “dizziness, dyspepsia and constipation”. In addition, in data set [5] (50 mg clomipramine), the “time to climax in premature ejaculators” value was “more than 8 minutes”. Also, the latency to ejaculation entry in data set [5] (25 milligrams clomipramine 12 to 24 hours before sexual activity, from about 1.5 to 2 minutes) was “about 8 minutes”. For the same molecule, the peak plasma concentration in data set [4] (single oral dose 50 mg) is 28.8 ± 11.2 ng/mL; in data set [4] (single oral dose 100 mg), 70 to 140 ng/mL.
Take `CN[C@H]1CC[C@@H](c2ccc(Cl)c(Cl)c2)c2ccccc21` [sertraline]: in [1] (Case Report 2, 50-100 mg for 16 weeks), the “outcome of earlier PE treatment” value was “unsuccessfully”.
For `COC(=O)[C@@H]1[C@H]2C[C@H]3c4[nH]c5cc(O)ccc5c4CCN3C[C@@H]2CC[C@@H]1O` [11-hydroxy-yohimbine], the “elimination half-life of active metabolite” value in data set [3] (single-dose yohimbine studies) is listed as 6 h.

The values are drawn from US12186325B2, “Treatment and prevention of premature ejaculation (PE)” (SEROJAC PME Handels GmbH, priority 2018, dated 2025).
